Data reported in US20050019288A1, “Alcohol-based aerosol deodorant composition comprising at lease one zinc salicylate or a derivative thereof” (priority 2003, published 2005).

Assays:
Corynebacterium xerosis = experiment: Bactericidal activity of a composition on microorganisms involved in underarm odor; format: cell-based; conditions: summary in text for the active agent
Protocol: The test described herein allows a quantitative determination of the bactericidal activity of a composition on microorganisms under optimum growth conditions, i.e., microorganisms of the Corynebacterium xerosis type (Institut Pasteur Collection No. 5216) grown on soybean tryptocasein agar on a slope.
On the day before the test, 32 g of soybean tryptocasein broth were placed in a pill bottle and incubated at 35° C. On the day of the test, 4 g of the test composition were added and the mixture was homogenized using a Vortex mixer.
A product-free growth control was prepared under the same conditions in order to check that the microorganisms were under favorable growth conditions throughout the duration of the test.
For the preparation of the inoculum, five days before the start of the test, the two bacterial strains were subcultured on a suitable medium. Incubation was performed for 5 days at 35° C. On the day of the test, the slope was washed with about 9 ml of diluent: the suspension obtained has a titre of […] (counting was performed). […]
The colonies were counted on the dishes containing more than 20 and less than 200 colonies. […]
The bactericidal activity of each of the formulations 2, 3 and 4 with respect to the strain Corynebacterium xerosis was measured and compared with a formulation without active agent.

[1] = Efficacy test: odor of incubated underarm sweat judged by a panel of experts against control sweat; set-up: species or system human; conditions: 37° C, average of 18 hours and 24 hours, compared with control sweat
Protocol: Underarm sweat was collected from six volunteers in a sauna, the samples of individual sweat, stored in ice for a few hours, are at that point virtually odorless. They were subsequently mixed together and divided into 1 ml aliquots. The active agents were added to these aliquots, which were then incubated in an oven at 37° C. After these samples were incubated for 18 and 24 hours, a panel of experts evaluated the intensity of the odor compared with a control sample, which was 1 ml of sweat incubated without addition of active agent.
The results are expressed below as a percentage of change in the unpleasantness of the odor compared with this control sweat sample (average of the percentages of change at 18 hours and 24 hours).
The active agents (A) and (B) correspond to zinc salicylate trihydrate from Bernardy Chimie and to the active agent (C) containing Triclosan.

Zinc salicylate
antibacterial activity on the Corynebacterium xerosis strains (Corynebacterium xerosis): low (1 Log of reduction: low)

Oc1cc(Cl)ccc1Oc1ccc(Cl)cc1Cl [(C), 2,4,4′-trichloro-2′-hydroxydiphenyl ether, reference compound]
% change in the unpleasantness of odor ([1]; 0.8 mg AM/ml of sweat): −55%

zinc salicylate trihydrate [(A)]
% change in the unpleasantness of odor ([1]; 1 mg AM/ml of sweat): −45% | % change in the unpleasantness of odor ([1]; 5 mg AM/ml of sweat): −48%
